Columns and labels:
HIV [1] = details: as reported in the prior art; cited from earlier work
in vivo = experiment: in vivo; set-up: species or system rats; details: rat
Source text: In rats, for example, the concentration of MKC-442 in the brain was 100% of that seen in the plasma.

[2] = Phase I study, single escalating doses: pharmacokinetics and tolerance; type: in vivo, HIV-infected volunteers
Source text: A Phase I study evaluated the pharmacokinetics and tolerance of single escalating doses of MKC-442 in HIV-infected volunteers.

HIV [3] = experiment: Phase I/II double-blind, placebo controlled trial of repeated multiple oral doses
Experimental: Preliminary data from a Phase I/II double-blind, placebo controlled trial designed to evaluate the safety and efficacy of repeated multiple oral doses of MKC-442 in HIV-infected patients has now also been evaluated. A total of 49 patients were treated with MKC-442 for up to two months. Doses ranging from 100 mg to 1000 mg twice a day were given to groups of six to eight patients at each dosage level.

[4] = test system: wild-type (drug-sensitive) and several mutant strains of HIV; experiment: Cell culture assay systems, inhibition of HIV replication (alone and in drug combinations); type: cell-based
Source text: MKC-442, although a nucleoside analogue, functions as a non-nucleoside reverse transcriptase inhibitor. It is considered an allosteric inhibitor because it appears to exert its activity by binding to an “allosteric position”, i.e., one other than the binding site, of the enzyme.

Row | SMILES | activity against HIV (HIV [1]) | toxicity (HIV [1]) | Kp (in vivo) | penetration into the central nervous system (in vivo) | oral bioavailability (in vivo; po) | concentrations of the drug in the plasma ([2]; groups receiving higher doses, compared with levels required to suppress 90% of the virus in culture) | tolerance ([2]; single escalating doses, HIV-infected volunteers) | viral load reduction (average) (HIV [3]; 705 mg and 1000 mg twice a day, all patients, after one week) [%] | tolerability (HIV [3]; over 308 patient-weeks of drug exposure, 100 mg to 1000 mg twice a day) | combination effect on HIV replication ([4]; three drug combination with AZT and saquinavir) | combination effect on HIV replication ([4]; two drug combination with AZT) | combination effect on HIV replication ([4]; two drug combination with DDI) | potency compared with nevirapine ([4]; wild-type and mutant strains of HIV) | ability to inhibit HIV replication ([4]; wild-type and mutant strains resistant to established non-nucleoside reverse transcriptase inhibitors)
1 | Nc1nc(=O)n([C@@H]2CS[C@H](CO)O2)cc1F (relative stereo) [FTC, cis-2-hydroxymethyl-5-(5-fluorocytosin-1-yl)-1,3-oxathiolane] | potent HIV activity | – | – | – | – | – | – | – | – | – | – | – | – | –
2 | Nc1ccn(C2CSC(CO)O2)c(=O)n1 (racemic) [BCH-189, 2-hydroxymethyl-5-(cytosin-1-yl)-1,3-oxathiolane] | approximately the same activity against HIV as AZT | little toxicity | – | – | – | – | – | – | – | – | – | – | – | –
3 | CCOCn1c(Cc2ccccc2)c(C(C)C)c(=O)[nH]c1=O [MKC-442, 6-benzyl-1-(ethoxymethyl)-5-isopropyluracil] | – | – | 1 | excellent | good | mich higher than the levels required to suppress 90% of the virus in culture | generally well tolerated | 96 | well tolerated | synergistic inhibition | synergistic inhibition | synergistic inhibition | greater potency than nevirapine | retained much of its ability to inhibit HIV replication

— US6410546B1, “Use of MKC-442 in combination with other antiviral agents” (Triangle Pharmaceuticals, Inc., priority 1997, dated 2002)
